Assay results as given in paper PMC7669867, “Synthesis and initial screening of lactate dehydrogenase inhibitor activity of 1,3-benzodioxole derivatives” (Scientific Reports, 2020).
Read-outs that look alike come from different tables or passages of the source. Blank lines part the entries; values can stand above or below the compound they belong to.

Key:
several cancer cells = test: Cell viability MTT assay, several cancer cells; type: cell-based; conditions: Homo sapiens, cell line not given, read-out: concentration of half-maximal growth inhibition (GI50)
Description: To assess the anticancer potency of these compounds in several cancer cells, we determined the cell toxicities of these compounds using an MTT assay. […] On the other hand, compound 10 has higher cytotoxicity compared to other compounds in various cancer cell lines. […] There is a small difference between standard compounds and compound 10 in growth inhibition of PANC-1 cells.
(§1) The potential cytotoxicity of compounds at different concentrations was evaluated using the MTT assay. Briefly, cancer cell lines were pre-incubated in 96-well plates with compounds for 48 h. Subsequently, MTT working solution (2 mg/mL in phosphate buffer solution) was added to each well and the plate was incubated for 4 h at 37 °C in an atmosphere containing 5% CO2. Then, the conditioned media were aspirated, and the formed formazan crystals in living cells were quantified using the microplate reader (Spectramax M2) at 540 nm. The concentrations that produce 50% cell growth inhibition (GI50) were calculated by curves constructed by the plot of cell survival by an assistant of PRISM software (GraphPad, San Diego, CA).

[1] = tested on: human pancreatic cancer PANC-1 cells; test: Cell viability MTT assay, PANC-1; type: cell-based; conditions: Homo sapiens, PANC-1; MTT, 48 h; read-out: PANC-1 (GI50)
Description: (§2) The human pancreatic cancer cell lines, PANC-1 and MiaPaCa-2, human lung cancer A549 cells, human breast cancer MCF-7, and human glioma U87 cells were obtained from the Korean cell line bank (Seoul, Korea). The cells were cultured in Dulbecco’s Modified Eagle Medium (DMEM; ThermoFisher Scientific, Waltham, MA) supplemented with 10% fetal bovine serum (FBS; Sigma-Aldrich) and 1% penicillin/streptomycin (ThermoFisher Scientific). The cells were cultured at 37 °C in an atmosphere containing 5% CO2.
as §1

[2] = tested on: human lung cancer A549 cells; test: Cell viability MTT assay, A549; type: cell-based; conditions: A549, MTT, 48 h, read-out: A549 (GI50)
Description: as §2, §1

[3] = tested on: human breast cancer MCF-7; test: Cell viability MTT assay, MCF-7; type: cell-based; conditions: MCF7, MTT, 48 h, read-out: MCF-7 (GI50)
Description: as §2, §1

human glioma U87 cells = test: Cell viability MTT assay, U87; type: cell-based; conditions: U-87 MG, MTT, 48 h, read-out: U87 (GI50)
Description: as §2, §1

[4] = molecular target: T1, purified recombinant human LDHB protein (Homo sapiens, UniProt P07195); test: In vitro LDHB activity assay (NAD+ converted to NADH); type: biochemical; conditions: synthesized compounds; read-out: LDHB IC50
T1 construct: purchased Abcam
T1 sequence (P07195 whole entry): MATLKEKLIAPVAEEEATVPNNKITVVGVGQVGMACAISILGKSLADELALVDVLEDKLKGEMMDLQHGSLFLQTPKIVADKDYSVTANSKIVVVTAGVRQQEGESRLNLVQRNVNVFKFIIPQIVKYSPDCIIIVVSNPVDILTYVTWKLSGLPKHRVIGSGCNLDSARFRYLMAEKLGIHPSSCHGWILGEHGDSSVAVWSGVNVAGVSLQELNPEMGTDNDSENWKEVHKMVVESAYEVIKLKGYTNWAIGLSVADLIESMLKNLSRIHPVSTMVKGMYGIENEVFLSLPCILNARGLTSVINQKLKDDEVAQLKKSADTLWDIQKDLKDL
Description: (§3) The in vitro evaluation of the LDHA inhibitor activities of the synthesized compounds was determined by the NADH intensity decrease through oxidation in a solution of HEPES-K^+, NADH, and pyruvate at a pH = 7.2. The NADH oxidation fluorescence intensity was measured using a spectrofluorometer at 340 nm excitation and 460 nm emission wavelengths, representing the NADH-specific fluorescence spectrum. Furthermore, the in vitro evaluation of the LDHB inhibitor activity was determined as a reverse reaction, which converts lactate to pyruvate by determining the amount of NAD^+ converted to NADH using the above-mentioned spectrophotometric experimental setting (Table 2). Based on this analysis, the half-maximal inhibitory concentration (IC50) of the synthesized compounds was obtained.
In vitro analysis was determined the amount of NAD^+ converted to NADH[33]. The assay mixture composed of 100 mM Tris–HCl buffer (pH 8.0), 200 mM sodium L-lactate, 2.5 mM NAD^+, and 100 ng of purified recombinant human LDHB protein (Abcam). The fluorescence intensity of NADH was measured using a spectrofluorometer (Spectramax M2) at 340 nm as excitation wavelength and 460 nm as emission wavelength which is the specific fluorescence of NADH.

[5] = tested on: human pancreatic cancer MiaPaCa-2 cells; test: Cell viability MTT assay, MiaPaCa-2; type: cell-based; conditions: MIA PaCa-2, MTT, 48 h, read-out: MiaPaCa-2 (GI50)
Description: as §2, §1

[6] = molecular target: T2, purified recombinant human LDHA protein (Homo sapiens, UniProt P00338); test: In vitro LDHA inhibitor activity (NADH fluorescence decrease); type: biochemical; conditions: for LDHB/LDHA: ratio of LDHB IC50 to LDHA IC50 (selectivity); for IC50: synthesized compounds, read-out: LDHA IC50
T2 construct: purchased Abcam
Description: as §3
In vitro evaluation on LDHA inhibitor activity. LDHA activity assay was performed in accordance with previous studies[16],[18]. Briefly, the various concentrations of compounds were incubated with reaction buffer containing 20 mM HEPES-K^+, 20 μM NADH, 2 mM pyruvate, and 100 ng of purified recombinant human LDHA protein (Abcam, Cambridge, UK). The fluorescence of NADH, which has an excitation wavelength of 340 nm and an emission wavelength of 460 nm, was detected using a microplate spectrofluorometer (Spectramax M2; Molecular Devices, Sunnyvale, CA).

in vitro [7] = type: in vitro ADME, human
Description: (§4) Human and rat plasma (Sigma-Aldrich) are incubated at 37 °C with test compounds. During the incubation, aliquots are withdrawn at 0, 30, 120 min time points and acetonitrile solution (containing chlorpropamide) is added. After vortexing, the aliquots are centrifuged and the supernatant is withdrawn for analysis by LC–MS/MS.

CYP3A4 = molecular target: T3, CYP3A4 (Homo sapiens, UniProt P08684); test: CYP isozymes activity assay, CYP3A4; type: in vitro ADME; conditions: microsomes, 0.1 µM
T3 construct: Pooled Human liver microsomes (Sigma-Aldrich; 0.25 mg/mL); tissue Sigma-Aldrich; host or cells: pooled human liver microsomes
T3 sequence (P08684 whole entry): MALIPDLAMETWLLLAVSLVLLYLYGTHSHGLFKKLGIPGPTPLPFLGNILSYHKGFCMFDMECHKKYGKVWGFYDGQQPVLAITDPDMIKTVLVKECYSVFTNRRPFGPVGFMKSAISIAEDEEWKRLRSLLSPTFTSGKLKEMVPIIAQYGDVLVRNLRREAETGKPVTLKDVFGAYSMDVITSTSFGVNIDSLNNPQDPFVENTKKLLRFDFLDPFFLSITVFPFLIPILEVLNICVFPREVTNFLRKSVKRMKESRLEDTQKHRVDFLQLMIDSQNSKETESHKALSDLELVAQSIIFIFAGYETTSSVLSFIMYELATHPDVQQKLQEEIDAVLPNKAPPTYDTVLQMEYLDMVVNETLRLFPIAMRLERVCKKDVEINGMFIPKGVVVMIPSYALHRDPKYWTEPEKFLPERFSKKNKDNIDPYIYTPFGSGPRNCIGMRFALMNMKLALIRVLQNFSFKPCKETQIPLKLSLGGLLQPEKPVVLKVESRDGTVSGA
Description: (§5) Pooled Human liver microsomes (Sigma-Aldrich; 0.25 mg/mL), 0.1 M phosphate buffer solution (pH 7.4), the five most commonly used substrate cocktails, such as 50 µM phenacetin (CYP1A2), 10 µM diclofenac […], 100 µM S-mephenytoin (CYP2C19) 5 µM dextromethorphan (CYP2D6), and 2.5 µM midazolam (CYP3A4), and compound 10 are pre-incubated at 37 °C for 5 min, then incubated with NADPH generation system solution for 15 min. To finish the enzymatic reaction, an acetonitrile solution (containing terfenadine) is added. The reaction tubes are centrifuged and the supernatant is withdrawn for analysis by LC–MS/MS.

in vitro [8] = type: in vitro ADME, rat
Description: as §4

in vitro [9] = type: in vitro ADME; conditions: rat, microsomes, pH 7.4
Description: (§6) To finish the reaction, an acetonitrile solution (involved in chlorpropamide) is added. The reaction tubes are centrifuged and the supernatant is withdrawn for analysis by LC–MS/MS.

CYP2D6 = molecular target: T4, CYP2D6 (Homo sapiens, UniProt P10635); test: CYP isozymes activity assay, CYP2D6; type: in vitro ADME; conditions: microsomes, 0.1 µM
T4 construct: Pooled Human liver microsomes (Sigma-Aldrich; 0.25 mg/mL); tissue Sigma-Aldrich; host or cells: pooled human liver microsomes
T4 sequence (P10635 whole entry): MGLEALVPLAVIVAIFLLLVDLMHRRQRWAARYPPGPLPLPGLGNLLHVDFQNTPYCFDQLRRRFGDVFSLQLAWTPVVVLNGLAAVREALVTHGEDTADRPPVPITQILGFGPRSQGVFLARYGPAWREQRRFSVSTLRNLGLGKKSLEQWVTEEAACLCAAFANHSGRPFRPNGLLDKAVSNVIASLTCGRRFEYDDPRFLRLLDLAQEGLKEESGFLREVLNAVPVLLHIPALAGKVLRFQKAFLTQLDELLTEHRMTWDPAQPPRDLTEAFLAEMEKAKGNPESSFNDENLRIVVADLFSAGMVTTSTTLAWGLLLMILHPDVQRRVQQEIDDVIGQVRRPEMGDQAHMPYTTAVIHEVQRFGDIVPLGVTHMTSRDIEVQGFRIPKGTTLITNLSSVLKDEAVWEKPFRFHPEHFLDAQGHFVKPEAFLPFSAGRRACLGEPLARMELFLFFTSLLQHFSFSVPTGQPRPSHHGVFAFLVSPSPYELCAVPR
Description: as §5

CYP2C19 = molecular target: T5, CYP2C19 (Homo sapiens, UniProt P33261); test: CYP isozymes activity assay, CYP2C19; type: in vitro ADME
T5 construct: Pooled Human liver microsomes (Sigma-Aldrich; 0.25 mg/mL); tissue Sigma-Aldrich; host or cells: pooled human liver microsomes
T5 sequence (P33261 whole entry): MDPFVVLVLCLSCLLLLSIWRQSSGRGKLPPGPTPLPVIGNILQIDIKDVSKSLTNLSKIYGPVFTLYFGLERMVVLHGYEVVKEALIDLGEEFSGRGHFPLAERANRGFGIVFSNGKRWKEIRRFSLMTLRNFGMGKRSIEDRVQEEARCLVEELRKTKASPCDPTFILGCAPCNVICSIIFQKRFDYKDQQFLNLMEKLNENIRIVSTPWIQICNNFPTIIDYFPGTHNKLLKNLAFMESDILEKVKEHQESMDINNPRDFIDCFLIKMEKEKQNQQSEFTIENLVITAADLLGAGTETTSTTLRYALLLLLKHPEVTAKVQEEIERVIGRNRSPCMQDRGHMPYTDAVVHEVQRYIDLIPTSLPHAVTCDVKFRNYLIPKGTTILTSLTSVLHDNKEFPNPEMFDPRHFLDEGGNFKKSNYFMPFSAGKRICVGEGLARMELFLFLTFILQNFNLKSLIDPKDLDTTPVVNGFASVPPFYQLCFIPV
Description: as §5

CYP1A2 = molecular target: T6, CYP1A2 (Homo sapiens, UniProt P05177); test: CYP isozymes activity assay, CYP1A2; type: in vitro ADME
T6 construct: Pooled Human liver microsomes (Sigma-Aldrich; 0.25 mg/mL); tissue Sigma-Aldrich; host or cells: pooled human liver microsomes
T6 sequence (P05177 1-516): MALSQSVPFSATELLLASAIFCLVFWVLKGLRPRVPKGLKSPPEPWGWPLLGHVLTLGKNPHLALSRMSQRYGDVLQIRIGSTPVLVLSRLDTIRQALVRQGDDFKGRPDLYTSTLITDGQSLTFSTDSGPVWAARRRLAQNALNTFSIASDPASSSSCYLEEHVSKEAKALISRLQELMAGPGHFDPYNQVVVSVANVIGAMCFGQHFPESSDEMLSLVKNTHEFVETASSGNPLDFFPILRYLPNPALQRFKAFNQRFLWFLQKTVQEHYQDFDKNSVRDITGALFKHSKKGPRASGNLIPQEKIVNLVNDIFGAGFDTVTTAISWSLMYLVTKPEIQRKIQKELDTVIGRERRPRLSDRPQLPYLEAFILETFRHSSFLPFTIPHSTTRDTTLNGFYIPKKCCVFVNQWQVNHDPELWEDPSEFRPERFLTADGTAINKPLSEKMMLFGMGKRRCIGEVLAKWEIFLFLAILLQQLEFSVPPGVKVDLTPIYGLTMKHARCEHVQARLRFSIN
Description: as §5

[10] = Human liver microsomal stability; type: in vitro ADME; conditions: microsomes, pH 7.4
Description: as §6

CYP2C9 = molecular target: T7, CYP2C9 (Homo sapiens, UniProt P11712); test: CYP isozymes activity assay, CYP2C9; type: in vitro ADME
T7 construct: Pooled Human liver microsomes (Sigma-Aldrich; 0.25 mg/mL); tissue Sigma-Aldrich; host or cells: pooled human liver microsomes
T7 sequence (P11712 whole entry): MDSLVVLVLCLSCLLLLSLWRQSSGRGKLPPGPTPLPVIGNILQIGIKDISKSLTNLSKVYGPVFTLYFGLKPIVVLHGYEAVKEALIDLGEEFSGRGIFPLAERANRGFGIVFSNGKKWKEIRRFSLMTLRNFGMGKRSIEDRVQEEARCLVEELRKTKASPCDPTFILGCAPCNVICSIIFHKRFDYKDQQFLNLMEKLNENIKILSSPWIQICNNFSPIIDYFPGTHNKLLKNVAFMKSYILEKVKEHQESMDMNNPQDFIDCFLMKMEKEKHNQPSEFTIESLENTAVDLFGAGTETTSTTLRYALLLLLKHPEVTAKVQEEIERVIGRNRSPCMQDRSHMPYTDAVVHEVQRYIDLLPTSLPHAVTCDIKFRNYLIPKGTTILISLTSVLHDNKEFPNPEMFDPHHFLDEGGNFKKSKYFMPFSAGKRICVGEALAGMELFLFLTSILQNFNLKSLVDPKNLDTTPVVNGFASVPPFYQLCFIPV
Description: as §5

GI50 (several cancer cells): > 1000 µM
GI50 [1]: > 1000 µM
GI50 [2]: > 1000 µM
GI50 [3]: > 1000 µM
GI50 (human glioma U87 cells): > 1000 µM
IC50 [4]: 395 µM
GI50 [5]: > 1000 µM
LDHB/LDHA [6]: 29.00
IC50 [6]: 13.6 µM
SMILES: O=C(OCc1ccc2c(c1)OCO2)c1ccc(C(F)(F)F)cc1 [Compound 2]

plasma stability (in words) (in vitro [7]): stable
remaining at 0.5 h (in vitro [7]; human, plasma): 98.1%
remaining at 2 h (in vitro [7]; human, plasma): 91.6%
CYP3A4 isozyme activity (% of control activity) (CYP3A4): > 100 % of control activity
plasma stability (in words) (in vitro [8]): stable
remaining at 0.5 h (in vitro [8]; rat, plasma): 93.8%
remaining at 2 h (in vitro [8]; rat, plasma): 87.5%
remaining at 0.5 h, 1 µM (in vitro [9]): 5.2%
CYP2D6 isozyme activity (% of control activity) (CYP2D6): 95.1 % of control activity
CYP2C19 isozyme activity (% of control activity) (CYP2C19; microsomes, 0.1 µM): 12.1 % of control activity
GI50 [1]: 12.2 µM
GI50 [2]: 56.5 µM
GI50 [3]: 61.4 µM
CYP1A2 isozyme activity (% of control activity) (CYP1A2; microsomes, 0.1 µM): 36.7 % of control activity
GI50 (human glioma U87 cells): 343 µM
IC50 [4]: > 1000 µM
GI50 [5]: 88.9 µM
remaining at 0.5 h, 1 µM [10]: 9.5%
CYP2C9 isozyme activity (% of control activity) (CYP2C9; microsomes, 0.1 µM): 97.4 % of control activity
LDHB/LDHA [6]: > 21.18
IC50 [6]: 47.2 µM
SMILES: FC(F)(F)c1ccc(Sc2nc3ccccc3s2)cc1 [Compound 10]

SMILES: CC(=O)N1CCN(c2ccc(OCC3COC(Cn4ccnc4)(c4ccc(Cl)cc4Cl)O3)cc2)CC1 (stereo not drawn) [Ketoconazole, reference compound]
CYP2C19 isozyme activity (% of control activity) (CYP2C19; pooled human liver microsomes, S-mephenytoin, ketoconazole at 0.1 µM): > 100 % of control activity
CYP1A2 isozyme activity (% of control activity) (CYP1A2; pooled human liver microsomes, phenacetin, ketoconazole at 0.1 µM): 99.1 % of control activity
CYP2C9 isozyme activity (% of control activity) (CYP2C9; pooled human liver microsomes, diclofenac, ketoconazole at 0.1 µM): 97.5 % of control activity
